According to article PMC5748027, “Computer-aided design of multi-target ligands at A1R, A2AR and PDE10A, key proteins in neurodegenerative diseases” (Journal of Cheminformatics, 2017):

How the values were obtained:
[1] = molecular target: T1, human PDE7B (Homo sapiens, UniProt Q9NP56); assay: Phosphodiesterase activity, AD293 cells transiently transfected with human PDE7B; type: biochemical; conditions: 10 µM compound; read-out: Percentage inhibition at 10µM (PDE7B)
T1 construct: expressed in transfected cells; host or cells: AD293 (transient transfection)
Method: (§1) The activity measurements against the phosphodiesterases PDE7A, PDE7B, PDE9A and PDE10A were performed using AD293 cells that were transiently and separately transfected with human PDE7A, PDE7B, PDE9A, and PDE10A following the procedure described by Shipe et al..

[2] = molecular target: T2, human PDE7A (Homo sapiens, UniProt Q13946); assay: Phosphodiesterase activity, AD293 cells transiently transfected with human PDE7A; type: biochemical; conditions: for inhibition at 10 µM: 10 µM compound, read-out: Percentage inhibition at 10µM (PDE7A)
T2 construct: expressed in transfected cells; host or cells: AD293 (transient transfection)
Method: as §1

[3] = molecular target: T3, A1 human adenosine receptor (A1R) (Homo sapiens, UniProt P30542); assay: Radioligand binding competition assay, human A1 receptor in transfected CHO cells; conditions: for inhibition at 0.1 µM: 0.1 µM compound, read-out: % displacement at 0.1 μM (A1R); for Ki: Cheng-Prusoff approximation
T3 construct: expressed in transfected cells; host or cells: CHO
T3 sequence (P30542 1-326): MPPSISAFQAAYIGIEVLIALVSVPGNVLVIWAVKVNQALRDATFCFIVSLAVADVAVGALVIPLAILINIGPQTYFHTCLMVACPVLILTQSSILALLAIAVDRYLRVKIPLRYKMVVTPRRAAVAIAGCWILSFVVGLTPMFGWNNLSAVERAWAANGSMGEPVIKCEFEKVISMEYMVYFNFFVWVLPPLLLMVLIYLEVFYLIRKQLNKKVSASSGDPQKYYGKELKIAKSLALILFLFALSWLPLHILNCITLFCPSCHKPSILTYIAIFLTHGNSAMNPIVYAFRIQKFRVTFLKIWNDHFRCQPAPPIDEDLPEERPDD
Method: Pharmacological evaluation was performed in a radioligand binding competition assay, using A1, A2A, A2B, and A3 human receptors expressed in transfected CHO (A1), HeLa (A2A and A3), and HEK-293 (A2B) according to the procedure reported by Bosch et al. [78].

[4] = molecular target: T4, human PDE10A (Homo sapiens, UniProt Q9Y233); assay: Phosphodiesterase activity, AD293 cells transiently transfected with human PDE10A; type: biochemical; conditions: for IC50: mean of 3 experiments in duplicate; for inhibition at 10 µM: read-out: % inhibition at 10 μM (PDE10A), 10 μM compound
T4 construct: expressed in transfected cells; host or cells: AD293 (transient transfection)
Method: (§2) Bioactivity testing was performed using A1 and A2A human adenosine receptors expressed in transfected CHO (A1) and HeLa (A2A) cells, as well as AD293 cells that were transiently transfected with human PDE10A. Table 1 includes the list of synthesized 4,6-substituted 2-amino-pyridin-3-carbonitriles, along with their Ki values against A1R, A2AR, and IC50 values against PDE10A.
as §1

[5] = molecular target: T5, human PDE9A (Homo sapiens, UniProt O76083); assay: Phosphodiesterase activity, AD293 cells transiently transfected with human PDE9A; type: biochemical; conditions: 10 µM compound; read-out: Percentage inhibition at 10µM (PDE9A)
T5 construct: expressed in transfected cells; host or cells: AD293 (transient transfection)
Method: as §1

[6] = molecular target: T6, A2A human adenosine receptor (A2AR) (Homo sapiens, UniProt P29274); assay: Radioligand binding competition assay, human A2A receptor in transfected HeLa cells; conditions: for Ki: Cheng-Prusoff approximation; for % displacement at 0.1 μM (A2AR): 0.1 µM compound
T6 construct: expressed in transfected cells; host or cells: HeLa
Method: as §2
(§3) Pharmacological evaluation was performed in a radioligand binding competition assay, using A1, A2A, A2B, and A3 human receptors expressed in transfected CHO (A1), HeLa (A2A and A3), and HEK-293 (A2B) according to the procedure reported by Bosch et al..

[7] = molecular target: T7, A3 human receptor (A3R) (Homo sapiens, UniProt P0DMS8); assay: Radioligand binding competition assay, human A3 receptor in transfected HeLa cells; conditions: 0.1 µM compound; read-out: percentage displacement at 0.1µM (A3R)
T7 construct: expressed in transfected cells; host or cells: HeLa
T7 sequence (P0DMS8 1-318): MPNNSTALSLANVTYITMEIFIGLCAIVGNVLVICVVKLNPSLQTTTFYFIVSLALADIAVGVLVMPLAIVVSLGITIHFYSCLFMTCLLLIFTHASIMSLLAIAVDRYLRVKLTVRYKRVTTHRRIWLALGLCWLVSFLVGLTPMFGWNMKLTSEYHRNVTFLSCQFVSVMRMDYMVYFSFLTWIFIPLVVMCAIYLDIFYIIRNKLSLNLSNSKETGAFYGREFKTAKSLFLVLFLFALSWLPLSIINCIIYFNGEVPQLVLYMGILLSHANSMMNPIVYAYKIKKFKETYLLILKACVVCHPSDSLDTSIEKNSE
Method: as §3

[8] = molecular target: T8, A2B human receptor (A2BR) (Homo sapiens, UniProt P29275); assay: Radioligand binding competition assay, human A2B receptor in transfected HEK-293 cells; conditions: 0.1 µM compound; read-out: percentage displacement at 0.1µM (A2BR)
T8 construct: expressed in transfected cells; host or cells: HEK-293
T8 sequence (P29275 1-332): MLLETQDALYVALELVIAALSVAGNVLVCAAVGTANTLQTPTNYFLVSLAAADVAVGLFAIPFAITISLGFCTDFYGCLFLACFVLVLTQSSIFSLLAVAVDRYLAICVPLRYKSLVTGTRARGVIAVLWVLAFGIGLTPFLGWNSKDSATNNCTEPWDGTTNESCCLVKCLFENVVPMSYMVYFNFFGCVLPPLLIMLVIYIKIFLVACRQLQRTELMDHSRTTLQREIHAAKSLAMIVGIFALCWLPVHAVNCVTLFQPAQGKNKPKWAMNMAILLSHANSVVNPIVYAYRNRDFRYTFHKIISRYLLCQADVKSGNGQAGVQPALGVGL
Method: as §3

T6 sequence (P29274 whole entry): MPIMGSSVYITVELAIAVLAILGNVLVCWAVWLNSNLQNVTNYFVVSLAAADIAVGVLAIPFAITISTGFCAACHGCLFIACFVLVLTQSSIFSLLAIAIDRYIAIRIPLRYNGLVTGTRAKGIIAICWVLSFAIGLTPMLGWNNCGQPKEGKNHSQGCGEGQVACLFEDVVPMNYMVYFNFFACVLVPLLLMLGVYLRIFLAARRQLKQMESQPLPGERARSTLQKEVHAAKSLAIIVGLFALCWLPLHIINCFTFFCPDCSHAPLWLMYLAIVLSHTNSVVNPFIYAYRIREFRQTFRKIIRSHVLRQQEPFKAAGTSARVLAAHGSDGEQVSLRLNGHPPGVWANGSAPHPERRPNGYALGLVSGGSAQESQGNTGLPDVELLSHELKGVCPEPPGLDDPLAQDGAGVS
T4 sequence (Q9Y233 267-1055 limits assumed): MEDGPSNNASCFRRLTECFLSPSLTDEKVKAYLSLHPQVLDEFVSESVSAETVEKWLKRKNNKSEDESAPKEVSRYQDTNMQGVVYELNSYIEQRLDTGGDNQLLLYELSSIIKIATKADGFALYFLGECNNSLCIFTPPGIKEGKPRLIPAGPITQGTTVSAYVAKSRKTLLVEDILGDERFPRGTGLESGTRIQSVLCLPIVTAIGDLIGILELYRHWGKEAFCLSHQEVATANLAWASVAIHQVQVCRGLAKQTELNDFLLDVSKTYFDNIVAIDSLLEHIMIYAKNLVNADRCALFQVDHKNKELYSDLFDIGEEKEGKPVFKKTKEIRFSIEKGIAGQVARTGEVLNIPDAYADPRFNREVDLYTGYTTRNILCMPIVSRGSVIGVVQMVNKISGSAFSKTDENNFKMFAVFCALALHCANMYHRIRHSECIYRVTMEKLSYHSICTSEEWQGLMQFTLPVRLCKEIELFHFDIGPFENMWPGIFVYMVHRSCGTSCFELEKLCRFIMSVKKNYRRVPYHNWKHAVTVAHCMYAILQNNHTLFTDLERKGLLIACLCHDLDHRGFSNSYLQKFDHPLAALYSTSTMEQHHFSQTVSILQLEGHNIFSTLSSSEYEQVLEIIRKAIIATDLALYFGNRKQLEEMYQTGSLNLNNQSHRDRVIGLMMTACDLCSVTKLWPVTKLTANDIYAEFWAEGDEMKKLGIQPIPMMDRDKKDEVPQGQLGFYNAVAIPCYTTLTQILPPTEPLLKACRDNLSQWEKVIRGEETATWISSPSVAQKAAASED
T2 sequence (Q13946 whole entry): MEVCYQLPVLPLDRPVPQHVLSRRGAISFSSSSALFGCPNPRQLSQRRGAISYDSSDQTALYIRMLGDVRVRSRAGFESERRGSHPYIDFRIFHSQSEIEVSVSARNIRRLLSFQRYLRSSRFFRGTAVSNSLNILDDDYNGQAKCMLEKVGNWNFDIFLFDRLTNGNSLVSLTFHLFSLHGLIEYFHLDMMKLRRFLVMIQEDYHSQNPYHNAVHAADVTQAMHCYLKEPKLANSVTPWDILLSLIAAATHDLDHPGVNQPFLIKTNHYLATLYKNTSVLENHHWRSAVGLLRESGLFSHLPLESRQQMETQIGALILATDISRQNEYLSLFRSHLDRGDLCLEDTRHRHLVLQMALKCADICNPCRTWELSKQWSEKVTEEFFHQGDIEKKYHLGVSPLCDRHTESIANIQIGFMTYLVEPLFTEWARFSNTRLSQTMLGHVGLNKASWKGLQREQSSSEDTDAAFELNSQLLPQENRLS
T1 sequence (Q9NP56 whole entry): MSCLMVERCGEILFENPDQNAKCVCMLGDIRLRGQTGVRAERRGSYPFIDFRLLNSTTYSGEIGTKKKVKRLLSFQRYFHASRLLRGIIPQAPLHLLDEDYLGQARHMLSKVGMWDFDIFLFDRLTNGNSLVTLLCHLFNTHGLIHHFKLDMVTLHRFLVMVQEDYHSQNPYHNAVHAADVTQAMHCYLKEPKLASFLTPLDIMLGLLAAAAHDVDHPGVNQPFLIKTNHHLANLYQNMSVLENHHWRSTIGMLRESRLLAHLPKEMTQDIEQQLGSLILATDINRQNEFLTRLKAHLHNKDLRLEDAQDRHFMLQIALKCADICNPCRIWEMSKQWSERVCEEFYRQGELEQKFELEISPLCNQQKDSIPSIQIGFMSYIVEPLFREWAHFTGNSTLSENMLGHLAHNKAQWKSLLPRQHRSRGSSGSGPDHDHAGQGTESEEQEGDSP
T5 sequence (O76083 whole entry): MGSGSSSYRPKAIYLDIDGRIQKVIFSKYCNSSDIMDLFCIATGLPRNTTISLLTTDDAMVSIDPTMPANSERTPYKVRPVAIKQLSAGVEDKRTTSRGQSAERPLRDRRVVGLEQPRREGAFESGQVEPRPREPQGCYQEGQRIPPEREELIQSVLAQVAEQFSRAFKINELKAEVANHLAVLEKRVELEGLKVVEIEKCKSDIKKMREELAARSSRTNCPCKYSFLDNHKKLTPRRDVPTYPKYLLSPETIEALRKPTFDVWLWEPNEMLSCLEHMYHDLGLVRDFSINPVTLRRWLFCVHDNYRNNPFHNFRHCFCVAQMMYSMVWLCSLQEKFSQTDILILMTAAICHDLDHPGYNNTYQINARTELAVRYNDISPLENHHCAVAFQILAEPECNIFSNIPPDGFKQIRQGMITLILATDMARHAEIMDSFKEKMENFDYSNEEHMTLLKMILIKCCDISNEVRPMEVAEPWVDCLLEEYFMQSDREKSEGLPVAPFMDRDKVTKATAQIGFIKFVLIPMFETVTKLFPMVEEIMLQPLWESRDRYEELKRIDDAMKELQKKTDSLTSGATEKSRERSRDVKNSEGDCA

| SMILES | inhibition at 10 µM [1] [%] | IC50 [2] [nM] | inhibition at 0.1 µM [3] [%] | IC50 [4] [nM] | inhibition at 10 µM [5] [%] | Ki [6] [nM] | inhibition at 0.1 µM [7] [%] | inhibition at 0.1 µM [8] [%] | melting point [°C] | inhibition at 10 µM [2] [%] | % displacement at 0.1 μM (A2AR) [6] [%] | inhibition at 10 µM [4] [%] | Ki [3] [nM] |
| --- | --- | --- | --- | --- | --- | --- | --- | --- | --- | --- | --- | --- | --- |
| Cn1cccc1-c1cc(-c2ccccc2)c(C#N)c(N)n1 [Compound 4, 2-amino-6-(1-methyl-1H-pyrrol-2-yl)-4-phenylpyridine-3-carbonitrile] | 48 |  | 26 | 3600 ± 300 | 2 |  | 13 | 5 | 152 to 153 | 50 | 32 |  |  |
| COc1ccccc1-c1cc(-c2ccccc2F)nc(N)c1C#N [Compound 19, 2-amino-6-(2-fluorophenyl)-4-(2-methoxyphenyl)pyridine-3-carbonitrile] | 42 |  | 58 |  | 19 | 338 ± 12 | 1 | 2 | 187 to 188 | 49 |  | 73 |  |
| N#Cc1c(-c2ccc3c(c2)OCO3)cc(-c2ccccc2)nc1N [Compound 7, 2-amino-4-(2H-1,3-benzodioxol-5-yl)-6-phenylpyridine-3-carbonitrile] | 8 |  |  |  | 19 |  | 2 | 1 | 220 to 221 | 22 | 5 | 17 | 25 ± 2 |
| N#Cc1c(-c2ccccc2)cc(-c2nccs2)nc1N [Compound 3, 2-amino-4-phenyl-6-(1,3-thiazol-2-yl)pyridine-3-carbonitrile] | 36 |  | 12 | 2000 ± 200 | 5 |  | 6 | 3 | 154 to 156 | 24 | 8 |  |  |
| N#Cc1c(C2CCCCC2)cc(-c2ccco2)nc1N [Compound 13, 2-amino-4-cyclohexyl-6-(furan-2-yl)pyridine-3-carbonitrile] | 41 |  |  |  | 4 | 49 ± 4 | 19 | 3 | 177 to 178 | 44 |  | 55 | 70 ± 3 |
| N#Cc1c(-c2ccccc2F)cc(-c2ccccc2F)nc1N [Compound 18, 2-amino-4,6-bis(2-fluorophenyl)pyridine-3-carbonitrile] | 36 |  |  |  | 0 | 948 ± 13 | 1 | 1 | 180 to 181 | 25 |  | 38 | 78 ± 5 |

Next, values leading:

| inhibition at 10 µM [1] [%] | IC50 [2] [nM] | inhibition at 0.1 µM [3] [%] | IC50 [4] [nM] | inhibition at 10 µM [5] [%] | Ki [6] [nM] | inhibition at 0.1 µM [7] [%] | inhibition at 0.1 µM [8] [%] | melting point [°C] | inhibition at 10 µM [2] [%] | % displacement at 0.1 μM (A2AR) [6] [%] | inhibition at 10 µM [4] [%] | Ki [3] [nM] | SMILES |
| --- | --- | --- | --- | --- | --- | --- | --- | --- | --- | --- | --- | --- | --- |
| 30 | 15100 | 38 | 10000 ± 600 | 17 | 95 ± 4 | 23 | 2 | 187 to 188 |  |  |  |  | COc1ccccc1-c1cc(-c2ccco2)nc(N)c1C#N [Compound 21, 2-amino-6-(furan-2-yl)-4-(2-methoxyphenyl)pyridine-3-carbonitrile] |
| 35 |  | 17 | 3700 ± 300 | 9 |  | 28 | 1 | 120 to 121 | 31 | 18 |  |  | Cc1ccccc1-c1cc(C2CCCCC2)c(C#N)c(N)n1 [Compound 10, 2-amino-4-cyclohexyl-6-(2-methylphenyl)pyridine-3-carbonitrile] |
| 38 |  | 19 | 3100 ± 400 | 7 |  | 1 | 1 | 299 to 300 | 47 | 7 |  |  | N#Cc1c(-c2ccc(O)cc2)cc(-c2ccc(O)cc2)nc1N [Compound 24, 2-amino-4,6-bis(4-hydroxyphenyl)pyridine-3-carbo-nitrile] |
